# Measured values taken from patent US20210121527A1, “METHODS OF TREATING MINIMAL RESIDUAL CANCER” (ICAHN SCHOOL OF MEDICINE AT MOUNT SINAI, priority 2018, published 2021).
# How the values were obtained:
# Assay in all cases: DiscoveRx scanMAX kinase profiling
# Format in all cases: binding
# EIF2AK1 = target: T1, EIF2AK1 (Homo sapiens, UniProt Q9BQI3); conditions: read-out: Inhibition of EIF2AK1 (KINOMEscan)
# T1 construct: purchased DiscoverX (San Diego, Calif.) scanMAX
# Method: (§1) Biochemical assays: Recombinant human EIF2AK3 (PERK) catalytic domain (amino acids 536-1116; Cat # PV5107), GFP-eIF2a (Cat # PV4809) substrate, and Terbium-labelled phospho-eIF2a antibody (Cat # PR8956B) were purchased from Invitrogen (Carlsbad, Calif.). HIS-SUMO-GCN2 catalytic domain (amino acids 584-1019) was expressed and purified from E. coli. TR-FRET kinase assays were performed in the absence or presence of inhibitors in a reaction buffer consisting of 50 mM HEPES, pH 7.5, 10 mMMgCl2, 1.0 mM EGTA, and 0.01% Brij-35, and 100-200 nM GFP-eIF2a substrate. […] Following the addition of test compound, the reaction was initiated by addition of enzyme and incubated at room temperature for 45 minutes. The reaction was stopped by addition of EDTA to a final concentration of 10 mM and Terbium-labelled phospho-eIF2α antibody was added at a final concentration of 2 nM and incubated for 90 minutes. The resulting fluorescence was monitored in an EnVison® Multilabel reader (PerkinElmer, Waltham, Mass.). TR-FRET ratios and the resulting IC50 values were determined from the fitted inhibition curves. Biochemical specificity profiling was performed at Cerep (Redmond, Wash.) and DiscoverX (San Diego, Calif.).
# PIK3CB = target: T2, PIK3CB (Homo sapiens, UniProt P42338); conditions: read-out: Direct inhibitory activity on PIK3CB (KINOMEscan)
# T2 construct: purchased DiscoverX (San Diego, Calif.)
# Method: as §1
# ERK3 (MAPK6) = target: T3, ERK3 (MAPK6) (Homo sapiens, UniProt Q16659); conditions: read-out: Direct inhibitory activity on ERK3 (KINOMEscan)
# T3 construct: purchased DiscoverX (San Diego, Calif.) scanMAX
# T3 sequence (Q16659 whole entry): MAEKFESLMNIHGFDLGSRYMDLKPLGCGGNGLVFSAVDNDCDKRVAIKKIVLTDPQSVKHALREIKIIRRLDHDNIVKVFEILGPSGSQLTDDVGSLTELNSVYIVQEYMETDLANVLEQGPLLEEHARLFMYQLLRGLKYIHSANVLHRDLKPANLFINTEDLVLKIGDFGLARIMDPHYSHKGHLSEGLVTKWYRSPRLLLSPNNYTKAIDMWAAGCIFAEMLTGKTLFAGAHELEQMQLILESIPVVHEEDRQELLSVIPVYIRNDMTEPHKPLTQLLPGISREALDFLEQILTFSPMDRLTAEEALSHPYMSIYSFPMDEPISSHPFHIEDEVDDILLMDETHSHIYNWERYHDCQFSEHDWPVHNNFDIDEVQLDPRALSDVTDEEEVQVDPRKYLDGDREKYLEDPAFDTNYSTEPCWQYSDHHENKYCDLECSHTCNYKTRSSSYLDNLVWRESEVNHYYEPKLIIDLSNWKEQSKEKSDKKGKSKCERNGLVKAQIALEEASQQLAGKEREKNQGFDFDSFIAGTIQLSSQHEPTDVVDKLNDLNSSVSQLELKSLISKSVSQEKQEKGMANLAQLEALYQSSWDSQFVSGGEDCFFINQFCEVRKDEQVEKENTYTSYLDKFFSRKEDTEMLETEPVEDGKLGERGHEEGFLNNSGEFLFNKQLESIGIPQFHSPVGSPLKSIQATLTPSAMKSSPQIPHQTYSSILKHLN
# Method: as §1
# ERBB4 = target: T4, ERBB4 (Homo sapiens, UniProt Q15303); conditions: read-out: Direct inhibitory activity on ERBB4 (KINOMEscan)
# T4 construct: purchased DiscoverX (San Diego, Calif.) scanMAX
# Method: as §1
# SYK = target: T5, SYK (Homo sapiens, UniProt P43405); conditions: read-out: Direct inhibitory activity on SYK (KINOMEscan)
# T5 construct: purchased DiscoverX (San Diego, Calif.) scanMAX
# Method: as §1
# AKT2 = target: T6, AKT2 (Homo sapiens, UniProt P31751); conditions: read-out: Direct inhibitory activity on AKT2 (KINOMEscan)
# T6 construct: purchased DiscoverX (San Diego, Calif.) scanMAX
# T6 sequence (P31751 whole entry): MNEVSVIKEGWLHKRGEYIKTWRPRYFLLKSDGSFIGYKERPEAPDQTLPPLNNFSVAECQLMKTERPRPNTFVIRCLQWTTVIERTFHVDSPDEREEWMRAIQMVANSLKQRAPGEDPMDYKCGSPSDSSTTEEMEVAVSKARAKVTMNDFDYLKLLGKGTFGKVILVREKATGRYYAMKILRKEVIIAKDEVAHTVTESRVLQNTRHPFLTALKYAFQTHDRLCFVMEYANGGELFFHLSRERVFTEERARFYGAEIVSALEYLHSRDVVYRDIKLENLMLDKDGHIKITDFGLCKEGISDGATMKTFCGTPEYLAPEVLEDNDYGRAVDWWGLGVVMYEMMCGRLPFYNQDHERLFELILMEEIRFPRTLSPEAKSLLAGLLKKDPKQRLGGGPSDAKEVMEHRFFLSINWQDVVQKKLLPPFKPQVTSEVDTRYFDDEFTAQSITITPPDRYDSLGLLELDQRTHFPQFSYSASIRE
# Method: as §1
# ERK2 (MAPK1) = target: T7, ERK2 (MAPK1) (Homo sapiens, UniProt P28482); conditions: read-out: Direct inhibitory activity on ERK2 (KINOMEscan)
# T7 construct: purchased DiscoverX (San Diego, Calif.) scanMAX
# T7 sequence (P28482 whole entry): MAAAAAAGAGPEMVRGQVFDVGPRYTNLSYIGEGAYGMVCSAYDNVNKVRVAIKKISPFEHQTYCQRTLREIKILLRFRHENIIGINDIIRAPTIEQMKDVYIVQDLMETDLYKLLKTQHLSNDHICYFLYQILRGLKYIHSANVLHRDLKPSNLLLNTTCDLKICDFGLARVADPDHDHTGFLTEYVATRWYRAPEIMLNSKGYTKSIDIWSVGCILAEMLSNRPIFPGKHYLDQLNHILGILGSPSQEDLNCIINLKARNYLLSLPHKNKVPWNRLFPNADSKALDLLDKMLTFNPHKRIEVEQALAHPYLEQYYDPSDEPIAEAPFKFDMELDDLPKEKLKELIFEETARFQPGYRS
# Method: as §1
# ERBB3 = target: T8, ERBB3 (Homo sapiens, UniProt P21860); conditions: read-out: Direct inhibitory activity on ERBB3 (KINOMEscan)
# T8 construct: purchased DiscoverX (San Diego, Calif.) scanMAX
# Method: as §1
# ERK4 (MAPK4) = target: T9, ERK4 (MAPK4) (Homo sapiens, UniProt P31152); conditions: read-out: Direct inhibitory activity on ERK4 (KINOMEscan)
# T9 construct: purchased DiscoverX (San Diego, Calif.) scanMAX
# T9 sequence (P31152 whole entry): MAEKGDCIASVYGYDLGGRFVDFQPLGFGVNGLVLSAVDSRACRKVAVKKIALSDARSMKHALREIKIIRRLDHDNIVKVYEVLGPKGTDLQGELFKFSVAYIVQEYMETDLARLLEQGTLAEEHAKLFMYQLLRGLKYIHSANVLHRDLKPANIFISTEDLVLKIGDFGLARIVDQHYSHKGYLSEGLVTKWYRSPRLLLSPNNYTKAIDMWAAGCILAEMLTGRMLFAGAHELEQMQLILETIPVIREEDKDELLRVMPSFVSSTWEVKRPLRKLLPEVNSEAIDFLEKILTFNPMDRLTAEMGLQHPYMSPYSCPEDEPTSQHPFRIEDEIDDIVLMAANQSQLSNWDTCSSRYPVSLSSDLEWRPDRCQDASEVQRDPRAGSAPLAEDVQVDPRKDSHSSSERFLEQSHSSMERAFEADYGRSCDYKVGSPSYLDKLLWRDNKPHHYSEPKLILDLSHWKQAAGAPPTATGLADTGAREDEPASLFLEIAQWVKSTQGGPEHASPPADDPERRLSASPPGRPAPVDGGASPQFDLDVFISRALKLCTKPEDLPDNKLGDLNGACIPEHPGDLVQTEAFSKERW
# Method: as §1
# ERBB2 = target: T10, ERBB2 (Homo sapiens, UniProt P04626); conditions: read-out: Direct inhibitory activity on ERBB2 (KINOMEscan)
# T10 construct: purchased DiscoverX (San Diego, Calif.) scanMAX
# T10 sequence (P04626 23-1255): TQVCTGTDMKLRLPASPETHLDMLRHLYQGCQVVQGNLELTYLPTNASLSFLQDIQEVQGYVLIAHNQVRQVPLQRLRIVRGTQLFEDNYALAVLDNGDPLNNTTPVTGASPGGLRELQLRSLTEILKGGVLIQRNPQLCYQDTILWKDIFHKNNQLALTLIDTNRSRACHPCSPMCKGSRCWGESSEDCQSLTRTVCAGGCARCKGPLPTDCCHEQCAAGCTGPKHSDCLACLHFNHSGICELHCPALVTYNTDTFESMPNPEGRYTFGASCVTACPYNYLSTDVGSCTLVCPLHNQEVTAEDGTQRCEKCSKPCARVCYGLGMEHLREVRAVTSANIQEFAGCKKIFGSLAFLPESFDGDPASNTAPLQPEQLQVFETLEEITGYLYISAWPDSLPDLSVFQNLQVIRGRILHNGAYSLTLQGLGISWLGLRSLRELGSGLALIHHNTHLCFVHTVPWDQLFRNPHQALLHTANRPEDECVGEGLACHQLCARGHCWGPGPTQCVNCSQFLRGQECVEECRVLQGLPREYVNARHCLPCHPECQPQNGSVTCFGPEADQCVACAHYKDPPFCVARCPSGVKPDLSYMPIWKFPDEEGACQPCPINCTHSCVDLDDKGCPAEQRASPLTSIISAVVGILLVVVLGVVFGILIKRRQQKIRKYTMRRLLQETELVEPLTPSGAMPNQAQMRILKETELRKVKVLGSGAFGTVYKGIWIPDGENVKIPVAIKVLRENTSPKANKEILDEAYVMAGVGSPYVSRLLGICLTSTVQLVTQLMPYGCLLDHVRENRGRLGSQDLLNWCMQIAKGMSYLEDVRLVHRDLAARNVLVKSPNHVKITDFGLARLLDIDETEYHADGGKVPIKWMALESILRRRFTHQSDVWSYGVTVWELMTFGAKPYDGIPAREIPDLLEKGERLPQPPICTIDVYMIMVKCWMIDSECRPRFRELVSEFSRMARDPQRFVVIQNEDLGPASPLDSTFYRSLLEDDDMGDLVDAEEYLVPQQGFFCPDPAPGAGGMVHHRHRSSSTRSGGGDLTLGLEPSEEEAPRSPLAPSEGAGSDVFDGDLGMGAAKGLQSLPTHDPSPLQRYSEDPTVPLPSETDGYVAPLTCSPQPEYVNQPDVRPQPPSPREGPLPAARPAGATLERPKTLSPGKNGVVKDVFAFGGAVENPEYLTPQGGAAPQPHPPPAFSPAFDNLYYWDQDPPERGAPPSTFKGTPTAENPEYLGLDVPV
# Method: as §1
# [1] = target: T11, GCN2 (Kin.Dom.2,S808G) (EIF2AK4) (Homo sapiens, UniProt Q9P2K8, S808G); conditions: read-out: Inhibition of GCN2/EIF2AK4 (KINOMEscan)
# T11 construct: Kin.Dom.2; purchased DiscoverX (San Diego, Calif.) scanMAX
# T11 sequence (Q9P2K8 590-1001 S808G limits assumed): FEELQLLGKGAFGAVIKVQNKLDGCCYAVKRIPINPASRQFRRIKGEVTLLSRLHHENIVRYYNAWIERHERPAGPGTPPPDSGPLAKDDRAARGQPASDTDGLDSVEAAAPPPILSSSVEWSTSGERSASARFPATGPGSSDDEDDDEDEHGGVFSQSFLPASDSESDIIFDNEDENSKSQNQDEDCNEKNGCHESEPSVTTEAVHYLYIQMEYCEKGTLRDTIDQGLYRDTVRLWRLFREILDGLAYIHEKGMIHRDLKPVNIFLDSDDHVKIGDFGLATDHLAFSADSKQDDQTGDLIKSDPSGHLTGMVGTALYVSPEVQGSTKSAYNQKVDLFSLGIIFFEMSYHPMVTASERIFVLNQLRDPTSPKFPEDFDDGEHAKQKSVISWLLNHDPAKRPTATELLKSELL
# Method: as §1, with “TR-FRET” for “Biochemical assays: Recombinant human EIF2AK3 (PERK) catalytic domain (amino acids 536-1116; Cat # PV5107), GFP-eIF2a (Cat # PV4809) substrate, and Terbium-labelled phospho-eIF2a antibody (Cat # PR8956B) were purchased from Invitrogen (Carlsbad, Calif.). HIS-SUMO-GCN2 catalytic domain (amino acids 584-1019) was expressed and purified from E. coli. TR-FRET”
# PRKR (EIF2AK2) = target: T12, PRKR (EIF2AK2) (Homo sapiens, UniProt P19525); conditions: read-out: Inhibition of PRKR/EIF2AK2 (KINOMEscan)
# T12 construct: purchased DiscoverX (San Diego, Calif.) scanMAX
# T12 sequence (P19525 whole entry): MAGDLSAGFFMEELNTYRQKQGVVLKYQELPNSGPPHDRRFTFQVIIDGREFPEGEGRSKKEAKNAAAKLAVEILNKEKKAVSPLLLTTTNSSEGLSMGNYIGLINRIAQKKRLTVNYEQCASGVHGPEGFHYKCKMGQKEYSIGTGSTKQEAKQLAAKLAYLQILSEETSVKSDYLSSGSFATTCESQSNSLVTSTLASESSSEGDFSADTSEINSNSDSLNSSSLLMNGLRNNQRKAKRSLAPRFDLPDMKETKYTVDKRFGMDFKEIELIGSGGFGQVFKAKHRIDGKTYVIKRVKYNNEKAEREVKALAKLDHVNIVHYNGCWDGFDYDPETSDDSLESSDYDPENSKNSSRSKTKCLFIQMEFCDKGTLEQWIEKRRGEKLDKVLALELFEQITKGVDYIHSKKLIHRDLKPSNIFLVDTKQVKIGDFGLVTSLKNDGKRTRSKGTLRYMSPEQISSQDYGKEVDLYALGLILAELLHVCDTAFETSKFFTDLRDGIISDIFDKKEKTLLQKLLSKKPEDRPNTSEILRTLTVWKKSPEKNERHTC
# Method: as §1, with “TR-FRET” for “Biochemical assays: Recombinant human EIF2AK3 (PERK) catalytic domain (amino acids 536-1116; Cat # PV5107), GFP-eIF2a (Cat # PV4809) substrate, and Terbium-labelled phospho-eIF2a antibody (Cat # PR8956B) were purchased from Invitrogen (Carlsbad, Calif.). HIS-SUMO-GCN2 catalytic domain (amino acids 584-1019) was expressed and purified from E. coli. TR-FRET”
# T1 sequence (Q9BQI3 whole entry): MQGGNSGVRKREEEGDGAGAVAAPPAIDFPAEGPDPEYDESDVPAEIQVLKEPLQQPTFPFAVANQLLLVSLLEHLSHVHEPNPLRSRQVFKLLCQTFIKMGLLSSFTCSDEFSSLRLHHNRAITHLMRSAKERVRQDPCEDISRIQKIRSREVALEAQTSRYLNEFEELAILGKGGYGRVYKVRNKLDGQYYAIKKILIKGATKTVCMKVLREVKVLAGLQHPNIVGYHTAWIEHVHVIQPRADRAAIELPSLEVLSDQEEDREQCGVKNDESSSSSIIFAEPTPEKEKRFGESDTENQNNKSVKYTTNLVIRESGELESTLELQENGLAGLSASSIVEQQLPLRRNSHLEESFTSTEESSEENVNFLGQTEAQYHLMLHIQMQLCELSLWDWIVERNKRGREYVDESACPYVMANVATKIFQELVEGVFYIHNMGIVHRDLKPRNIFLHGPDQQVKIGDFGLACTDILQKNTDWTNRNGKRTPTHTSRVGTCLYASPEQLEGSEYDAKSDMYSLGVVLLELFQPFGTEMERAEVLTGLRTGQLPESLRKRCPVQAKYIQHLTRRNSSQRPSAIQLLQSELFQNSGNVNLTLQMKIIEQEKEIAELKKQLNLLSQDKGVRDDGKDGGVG
Compound,inhibition at 0.2 µM (EIF2AK1),inhibition at 2 µM (EIF2AK1),inhibition at 20 µM (EIF2AK1),inhibition at 0.2 µM (PIK3CB),inhibition at 2 µM (PIK3CB),inhibition at 20 µM (PIK3CB),inhibition at 0.2 µM (ERK3 (MAPK6)),inhibition at 2 µM (ERK3 (MAPK6)),inhibition at 20 µM (ERK3 (MAPK6)),inhibition at 0.2 µM (ERBB4),inhibition at 2 µM (ERBB4),inhibition at 20 µM (ERBB4),inhibition at 0.2 µM (SYK),inhibition at 2 µM (SYK),inhibition at 20 µM (SYK),inhibition at 0.2 µM (AKT2),inhibition at 2 µM (AKT2),inhibition at 20 µM (AKT2),inhibition at 0.2 µM (ERK2 (MAPK1)),inhibition at 2 µM (ERK2 (MAPK1)),further results
"Cc1cccc(CC(=O)N2CCc3c2ccc(-c2cn(C)c4ncnc(N)c24)c3F)n1 [GSK2656157, reference compound]",8%,77%,95%,0%,0%,0%,0%,16%,0%,0%,0%,0%,0%,12%,23%,0%,4%,8%,0%,0%,inhibition at 20 µM (ERK2 (MAPK1)): 0%; inhibition at 0.2 µM (ERBB3): 40%; inhibition at 2 µM (ERBB3): 22%; inhibition at 20 µM (ERBB3): 53%; inhibition at 0.2 µM (ERK4 (MAPK4)): 0%; inhibition at 2 µM (ERK4 (MAPK4)): 35%; inhibition at 20 µM (ERK4 (MAPK4)): 0%; inhibition at 0.2 µM (ERBB2): 57%; inhibition at 2 µM (ERBB2): 64%; inhibition at 20 µM (ERBB2): 97%; inhibition at 0.2 µM [1]: 7%; inhibition at 2 µM [1]: 13%; inhibition at 20 µM [1]: 79%; inhibition at 0.2 µM (PRKR (EIF2AK2)): 20%; inhibition at 2 µM (PRKR (EIF2AK2)): 45%; inhibition at 20 µM (PRKR (EIF2AK2)): 67%
"Cc1cc(NC(=O)[C@H](O)c2cc(F)cc(F)c2)ccc1-c1cnc(N)c(C(=O)NC(C)C)c1 [LY4, 2-amino-5-[4-[[(2R)-2-(3,5-difluorophenyl)-2-hydroxy-acetyl]amino]-2-methyl-phenyl]-N-isopropyl-pyridine-3-carboxamide]",0%,0%,35%,0%,0%,12%,0%,32%,3%,0%,0%,4%,0%,0%,0%,0%,0%,0%,0%,0%,inhibition at 20 µM (ERK2 (MAPK1)): 1%; inhibition at 0.2 µM (ERBB3): 0%; inhibition at 2 µM (ERBB3): 0%; inhibition at 20 µM (ERBB3): 0%; inhibition at 0.2 µM (ERK4 (MAPK4)): 0%; inhibition at 2 µM (ERK4 (MAPK4)): 0%; inhibition at 20 µM (ERK4 (MAPK4)): 0%; inhibition at 0.2 µM (ERBB2): 0%; inhibition at 2 µM (ERBB2): 0%; inhibition at 20 µM (ERBB2): 0%; inhibition at 0.2 µM [1]: 0%; inhibition at 2 µM [1]: 0%; inhibition at 20 µM [1]: 28%; inhibition at 0.2 µM (PRKR (EIF2AK2)): 0%; inhibition at 2 µM (PRKR (EIF2AK2)): 0%; inhibition at 20 µM (PRKR (EIF2AK2)): 0%
